This passage reports Papp and microsomal CLint results from US9409952B2, “Peptide-compound cyclization method” (Chugai Seiyaku Kabushiki Kaisha, priority 2011, dated 2016).

Structures can show the parent of a compound that is named as a salt. Where two headings read alike, the source gives them in different places. Starred links: 1 amine or outer side, 2 acyl side, 3 side chain; linkers in the order of their positions; H or OH if unused. Positions of bridges follow the written chain, without caps; N, C: chain ends. Non-standard residues stand in square brackets, D forms with d. Residues, ends and D or L forms follow the SMILES beside them. *: point of attachment. NMePhe(3-Cl) = CN[C@@H](Cc1cccc(Cl)c1)C(=O)O; NMeF = CN[C@@H](Cc1ccccc1)C(=O)O; NMeI = CC[C@H](C)[C@H](NC)C(=O)O; hPhe = N[C@@H](CCc1ccccc1)C(=O)O; 3Pal = N[C@@H](Cc1cccnc1)C(=O)O; NMeβAla = CN(CCC(=O)[*:2])[*:1]; NMeL = CN[C@@H](CC(C)C)C(=O)O; NMeV = CN[C@H](C(=O)O)C(C)C; NMeA = CN[C@@H](C)C(=O)O; Piperidide = C1CCN(*)CC1; dNMeA = CN[C@H](C)C(=O)O; β3hA = C[C@H](N)CC(=O)O; NPrGly = CCCNCC(=O)O; Sar = CNCC(=O)O; tBu = CC(C)(C)*

Series [1] can be described thus: PAMPA (parallel artificial membrane permeability assay). The series is classed as in vitro ADME. The note with it: PAMPA. The gist of the method: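 Artificial membrane was 10% (w/v) egg lecithin plus 0.5% (w/v) cholesterol in dodecane on a PVDF filter. A 10 mM DMSO stock was added at 0.5% (v/v) to donor buffer (50 mM MOPSO, pH 6.5, 5.0% glycocholic acid). After 18 h at 37 °C, LC/MS or LC/UV gave donor and acceptor levels for Pe.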
On the technique in general: The PAMPA barrier holds no transporters, so it reflects passive diffusion.

The nature of series [2]: Metabolic stability in human hepatic microsome. The following applies: microsomes. The series is classed as in vitro ADME.
[3] abbreviates: membrane permeation rate (Pe), 50 mM MOPSO buffer pH 6.5 with 5.0% glycocholic acid, 37° C., 18 hours, read-out: iPAMPA Pe.
Setting [4] is: pH 7.4, human hepatic microsome, NADPH(+), read-out: CL NADPH(+).

Turning to `CC(C)C[C@H]1C(=O)N[C@@H](C(C)C)C(=O)N(C)[C@@H](Cc2ccccc2)C(=O)N(C)[C@@H](C)C(=O)N[C@@H](Cc2ccccc2)C(=O)N[C@H](C(=O)N(C)[C@@H](Cc2ccccc2)C(=O)N[C@@H](C)C(=O)N2CCCCC2)CC(=O)N(C)CCC(=O)N[C@@H]([C@@H](C)O)C(=O)N(C)CC(=O)N1C` [DP-200] ([NMeβAla]T[Sar][NMeL]V[NMeF][NMeA]FD[NMeF]A-Piperidide; lactam N-9), the Papp at 18 hours, 50 µM in series [1] (setting [3]) stood at 22 ×10⁻⁶ cm/s. Also, the microsomal CLint at 1 uM in series [2] (setting [4]) turned out to be 57 µL/min/mg.
For the compound `CC(C)C[C@H]1C(=O)N[C@@H](C)C(=O)N(C)[C@@H](C)C(=O)N[C@H](C(=O)N(C)[C@@H](Cc2ccccc2)C(=O)N[C@@H](C)C(=O)N2CCCCC2)CC(=O)N(C)[C@H](C)C(=O)N(C)[C@@H](C(C)C)C(=O)N(C)[C@@H](C)C(=O)N[C@@H](Cc2ccccc2)C(=O)N[C@@H]([C@@H](C)O)C(=O)N(C)[C@@H](C)C(=O)N1C` [DP-354] ([dNMeA][NMeV][NMeA]FT[NMeA][NMeL]A[NMeA]D[NMeF]A-Piperidide; lactam N-10), in series [1] (setting [3]), the Papp at 18 hours, 50 µM was 3.3 ×10⁻⁶ cm/s. In addition, the microsomal CLint at 1 uM in series [2] (setting [4]) turned out to be 8 µL/min/mg.
On the same counts, the results for `CC(C)C[C@H]1C(=O)N(C)[C@@H](CC(C)C)C(=O)N[C@H](C(=O)N(C)[C@@H](Cc2ccccc2)C(=O)N[C@@H](C)C(=O)N2CCCCC2)CC(=O)N(C)[C@@H](C)C(=O)N(C)[C@@H](Cc2ccccc2)C(=O)N(C)[C@@H](CC(C)C)C(=O)N[C@@H]([C@@H](C)O)C(=O)N(C)[C@@H](C)C(=O)N[C@@H](C(C)C)C(=O)N1C` [DP-199] ([NMeA][NMeF][NMeL]T[NMeA]V[NMeL][NMeL]D[NMeF]A-Piperidide; lactam N-9) are 59 ×10⁻⁶ cm/s and 170 µL/min/mg.
Taken in the same sequence, the figures for `CC(C)C[C@H]1C(=O)N[C@@H]([C@@H](C)O)C(=O)N(C)[C@@H](Cc2ccccc2)C(=O)N(C)[C@@H](CC(C)C)C(=O)NCC(=O)N(C)[C@@H](C(C)C)C(=O)N[C@@H](Cc2ccccc2)C(=O)N[C@H](C(=O)N(C)[C@@H](Cc2ccccc2)C(=O)N(C)[C@@H](Cc2ccccc2)C(=O)N[C@@H](C)C(=O)N2CCCCC2)CC(=O)N[C@H](C(C)C)C(=O)N[C@@H](C(C)C)C(=O)N1C` [DP-205] ([dV]V[NMeL]T[NMeF][NMeL]G[NMeV]FD[NMeF][NMeF]A-Piperidide; lactam N-10) were 0.12 ×10⁻⁶ cm/s and 29 µL/min/mg.
Take `CC(C)C[C@H]1C(=O)N[C@H](C(=O)N(C)[C@@H](Cc2ccccc2)C(=O)N[C@@H](C)C(=O)N2CCCCC2)CC(=O)N[C@H](C)C(=O)N(C)[C@@H](Cc2ccccc2)C(=O)N(C)[C@@H](CC(C)C)C(=O)N[C@@H]([C@@H](C)O)C(=O)N(C)[C@@H](C)C(=O)N(C)[C@@H](CC(C)C)C(=O)N[C@@H](C(C)C)C(=O)N1C` [DP-197] ([dA][NMeF][NMeL]T[NMeA][NMeL]V[NMeL]D[NMeF]A-Piperidide; lactam N-9): the Papp at 18 hours, 50 µM in series [1] (setting [3]) was 27 ×10⁻⁶ cm/s. The microsomal CLint at 1 uM in series [2] (setting [4]) amounted to 48 µL/min/mg.
Taken in the same sequence, the figures for `CC(C)C[C@H]1C(=O)N(C)[C@@H](CC(C)C)C(=O)N[C@@H]([C@@H](C)O)C(=O)N(C)[C@@H](Cc2ccccc2)C(=O)NCC(=O)N(C)[C@@H](C(C)C)C(=O)N[C@@H](Cc2ccccc2)C(=O)N[C@@H](C)CC(=O)N(C)CCC(=O)N[C@@H](COC(C)(C)C)C(=O)N1C` [DP-777] (cyclo(F[β3hA][NMeβAla]S(tBu)[NMeL][NMeL]T[NMeF]G[NMeV])) were 39 ×10⁻⁶ cm/s and 428 µL/min/mg.
On the same counts, the results for `CC[C@H](C)[C@H]1C(=O)N(C)CC(=O)N(C)[C@@H](C(C)C)C(=O)N[C@@H]([C@@H](C)O)C(=O)N[C@H](C(=O)N2CCCCC2)CC(=O)N[C@H](C(C)C)C(=O)N(C)[C@@H](C)C(=O)N(C)[C@@H](CC(C)C)C(=O)N[C@@H](CC(C)C)C(=O)N(C)[C@@H](Cc2ccccc2)C(=O)N[C@@H](Cc2ccccc2)C(=O)N1C` [DP-233] ([dV][NMeA][NMeL]L[NMeF]F[NMeI][Sar][NMeV]TD-Piperidide; lactam N-11) are 32 ×10⁻⁶ cm/s and 39 µL/min/mg.
Compound `CC(C)C[C@@H]1NC(=O)[C@H](Cc2cccnc2)NC(=O)[C@@H]2CCCN2C(=O)[C@H](C)NC(=O)[C@H](CC(C)C)N(C)C(=O)[C@H](Cc2ccccc2)NC(=O)[C@H](C)N(C)C(=O)[C@H](CC(C)C)N(C)C(=O)[C@H](Cc2ccccc2)NC(=O)[C@H](C)N(C)C(=O)C[C@@H](C(=O)N(C)[C@@H](Cc2ccccc2)C(=O)N[C@@H](C)C(=O)N2CCCCC2)NC1=O` [DP-599] ([NMeA]F[NMeL][NMeA]F[NMeL]AP[3Pal]LD[NMeF]A-Piperidide; lactam N-11) yielded a Papp at 18 hours, 50 µM in series [1] (pH 6.5) of 28 ×10⁻⁶ cm/s. Further, the microsomal CLint at 1 uM in series [2] (human, pH 7.4, CL NADPH(+)) was 84 µL/min/mg.
Take `CC[C@H](C)[C@@H]1NC(=O)[C@H](Cc2ccccc2)NC(=O)[C@H](C(C)C)N(C)C(=O)CN(C)C(=O)C[C@@H](C(=O)N2CCCCC2)NC(=O)[C@H]([C@@H](C)O)NC(=O)[C@H](CC(C)C)N(C)C(=O)[C@H](Cc2ccccc2)NC(=O)[C@H](CC(C)C)N(C)C(=O)CNC(=O)[C@H](CC(C)C)NC(=O)[C@H](C)N(C)C1=O` [DP-137] ([Sar][NMeV]FI[NMeA]LG[NMeL]F[NMeL]TD-Piperidide; lactam N-12): the Papp at 18 hours, 50 µM in series [1] (setting [3]) worked out at 32 ×10⁻⁶ cm/s. Moreover, in series [2] (setting [4]), the microsomal CLint at 1 uM was determined as 86 µL/min/mg.
Taken in the same sequence, the figures for `CC[C@H](C)[C@@H]1NC(=O)[C@H](Cc2ccccc2)N(C)C(=O)[C@H](CC(C)C)N(C)C(=O)[C@H](Cc2ccccc2)NC(=O)[C@H](C)N(C)C(=O)[C@H]([C@@H](C)O)NC(=O)[C@H](C(C)C)NC(=O)[C@@H](C(C)C)NC(=O)C[C@@H](C(=O)N(C)[C@@H](Cc2ccccc2)C(=O)N[C@H](C(=O)N(C)[C@@H](C)C(=O)N(C)[C@@H](CC(C)C)C(=O)N[C@H](C(=O)N2CCCCC2)[C@@H](C)CC)C(C)C)NC1=O` [DP-935] ([dV]VT[NMeA]F[NMeL][NMeF]ID[NMeF]V[NMeA][NMeL]I-Piperidide; lactam N-9) were 0.1 ×10⁻⁶ cm/s and 29 µL/min/mg.
`CC(C)C[C@H]1NC(=O)C[C@@H](C(=O)N2CCCCC2)NC(=O)[C@H](CC(C)C)N(C)C(=O)[C@H](Cc2ccccc2)NC(=O)[C@H](CC(C)C)N(C)C(=O)[C@H](C)N(C)C(=O)[C@H](Cc2c[nH]cn2)NC(=O)[C@H](CC(C)C)N(C)C(=O)[C@H](Cc2ccccc2)N(C)C1=O` [DP-904] ([dL][NMeF][NMeL]H[NMeA][NMeL]F[NMeL]D-Piperidide; lactam N-9): the Papp at 18 hours, 50 µM in series [1] (setting [3]) amounted to 7.8 ×10⁻⁶ cm/s. Also, the microsomal CLint at 1 uM in series [2] (setting [4]) worked out at 89 µL/min/mg.
Take `CC[C@H](C)[C@H]1C(=O)N[C@@H](CC(C)C)C(=O)N(C)CC(=O)N[C@@H]([C@@H](C)O)C(=O)N[C@@H](Cc2ccccc2)C(=O)N[C@@H](C)C(=O)N(C)[C@@H](CC(C)C)C(=O)N[C@@H](Cc2ccccc2)C(=O)N[C@@H](C(C)C)C(=O)N[C@H](C(=O)N2CCCCC2)CC(=O)N[C@@H](C)C(=O)N[C@@H](CC(C)C)C(=O)N1C` [DP-35] (AL[NMeI]L[Sar]TFA[NMeL]FVD-Piperidide; lactam N-12): the Papp at 18 hours, 50 µM in series [1] (pH 6.5) came out at 12 ×10⁻⁶ cm/s. Besides, in series [2] (human, pH 7.4, CL NADPH(+)), the microsomal CLint at 1 uM was 32 µL/min/mg.
`CC[C@H](C)[C@H](NC(=O)[C@H](CC(C)C)N(C)C(=O)[C@@H]1CCCN1C(=O)[C@@H](NC(=O)[C@H](C)N(C)C(=O)[C@@H]1CC(=O)N[C@@H](C)C(=O)N(C)[C@@H](CC(C)C)C(=O)N(C)[C@@H](Cc2cccc(Cl)c2)C(=O)N[C@@H](C(C)C)C(=O)N(C)[C@@H](CC(C)C)C(=O)N(C)[C@@H](CC(C)C)C(=O)N[C@@H]([C@@H](C)O)C(=O)N[C@@H](Cc2ccccc2)C(=O)N1)C(C)C)C(=O)N1CCCCC1` [DP-936] (A[NMeL][NMePhe(3-Cl)]V[NMeL][NMeL]TFD[NMeA]VP[NMeL]I-Piperidide; lactam N-9): in series [1] (setting [3]), the Papp at 18 hours, 50 µM turned out to be 0.11 ×10⁻⁶ cm/s. Also, the microsomal CLint at 1 uM in series [2] (setting [4]) came out at 29 µL/min/mg.
In the case of `CCCN1CC(=O)N[C@@H](CC(C)C)C(=O)N[C@@H]([C@@H](C)O)C(=O)N(C)CC(=O)N(C)[C@@H](Cc2ccccc2)C(=O)N[C@@H](C)C(=O)N(C)[C@@H](Cc2ccccc2)C(=O)N(C)[C@@H](CC(C)C)C(=O)N(C)[C@@H]([C@@H](C)CC)C(=O)N(C)[C@@H](CC(C)C)C(=O)N[C@H](C(=O)N2CCCCC2)CC1=O` [DP-544] ([NPrGly]LT[Sar][NMeF]A[NMeF][NMeL][NMeI][NMeL]D-Piperidide; lactam N-11), the Papp at 18 hours, 50 µM in series [1] (setting [3]) was 42 ×10⁻⁶ cm/s. Besides, the microsomal CLint at 1 uM in series [2] (setting [4]) is 45 µL/min/mg.
Taken in the same sequence, the figures for `CC[C@H](C)[C@H](NC(=O)[C@H](Cc1ccccc1)N(C)C(=O)[C@H](C)N(C)C(=O)[C@@H](NC(=O)[C@@H]1CC(=O)N[C@@H](C)C(=O)N[C@@H]([C@@H](C)O)C(=O)N(C)[C@@H](CC(C)C)C(=O)N[C@@H](C(C)C)C(=O)N(C)[C@@H](Cc2cccc(Cl)c2)C(=O)N(C)[C@@H](CC(C)C)C(=O)N[C@@H](Cc2ccccc2)C(=O)N1)[C@@H](C)CC)C(=O)N1CCCCC1` [DP-928] (AT[NMeL]V[NMePhe(3-Cl)][NMeL]FDI[NMeA][NMeF]I-Piperidide; lactam N-8) were 0.1 ×10⁻⁶ cm/s and 60 µL/min/mg.
Take `CC(C)C[C@@H]1NC(=O)[C@@H]2CCCN2C(=O)[C@H](Cc2ccccc2)N(C)C(=O)[C@H](C)N(C)C(=O)[C@H]([C@@H](C)O)NC(=O)[C@@H](C(C)C)NC(=O)C[C@@H](C(=O)N2CCCCC2)NC(=O)[C@H](CC(C)C)N(C)C(=O)[C@H](C)N(C)C(=O)[C@H](CCc2ccccc2)NC(=O)[C@H](C(C)C)N(C)C1=O` [DP-732] ([dV]T[NMeA][NMeF]PL[NMeV][hPhe][NMeA][NMeL]D-Piperidide; lactam N-11): the Papp at 18 hours, 50 µM in series [1] (setting [3]) was found to be 26 ×10⁻⁶ cm/s. Besides, in series [2] (setting [4]), the microsomal CLint at 1 uM stood at 57 µL/min/mg.
